The values below come from patent publication US20080199550A1, “Novel Anticancer Agent, Methods for Obtaining the Same and Pharmaceutical Compositions Thereof” (priority 2005, published 2008).

Experiment [1] has as its system cancer cells. The experiment in a line: Cell proliferation assay, all the cell lines. It counts as cell-based. On the procedure:
(§1) For assaying the inhibitory effects of the samples on cell proliferation, cancer cells were seeded into a 96-well tissue culture plate at a cell density of 5×10^4 cells per well and incubated with plant extract at different concentrations for 24 hours in a humidified atmosphere containing 5% CO2 at 37° C. The viable and dead cell counts were performed as per trypan blue exclusion method and results were recorded.

Experiment [2] concerns S-180 cells. The experiment in a line: Sarcoma bearing mice. Format: in vivo, mouse. On the procedure: Adult, male age-matched Swiss albino mice (29-34 g) housed in groups of four to five in plastic cages, received laboratory rodent chow and tap water ad libitum 14 days prior to experimentation in a temperature controlled room with a 12-h dark/light cycle. S-180 cells maintained in the peritoneal cavity of male mice were used for testing the antitumour activity. The cell suspension was diluted to 1.18×10^8 cells/ml, and 0.1 ml of the suspension was inoculated intra-peritoneally into the mice. The tumour-bearing mice were treated, 24 hrs after inoculation, by i.p. injections of 10 and 20 mg/kg of HAC-01 (2 mg/ml with vehicle in physiological saline solution) at the dosage of 0.05 and 0.1 ml/10 gm b.wt. of mouse every other day for 14 days (Total 7 injections). The control group was treated with vehicle in 0.9% NaCl. The mice b.wt. was recorded at 0,4,8, 11,16,18,20,22 and 24th day.
All data were presented as mean ±SD. Statistical significance was evaluated by t test. P<0.05 is considered as statistically significant.
White blood cell (WBC) and differential leukocyte counts were measured from freely flowing tail vein blood of normal control, sarcoma control and HAC-01 treated groups.

Experiment [3] relates to MCF-7. The experiment in a line: DNA integrity assay (acredine orange, fluorescent microscope). Format: cell-based, human. The note with it: end of 48 h of incubation. On the procedure:
It was observed by direct visualization under fluorescent microscope. The cell pellets were treated with acredine orange (t 1:10 dilution) and directly visualized under fluorescent microscope under UV spectrum and the changes in the DNA were documented.

Experiment [4] addresses T1, telomerase (Homo sapiens, UniProt O14746).
T1 construct: endogenous in cells; host or cells: MCF-7
In words: Telo TAGGG Telomerase PCR ELISA. Format: cell-based. The note with it: MCF-7; 6.25 μg/ml; 48 and 72 hours. On the procedure: In the present study the telomerase activity of the cancer cell were assessed following the treatment with the samples with the help of Telomerase PCR ELISA (Roche, Germany). Cells were plated in a 24 well plate (2×10^5 cells per well) in DMEM supplemented with FBS (10%) and incubated for 48 hours and 72 hours in a humidified atmosphere with 95% air and 5% CO2 at 37° C. with (6.25 μg/ml) or with out (Control) the samples. Cells of the positive control group were treated with paclitaxel at 1.75 μg/ml and incubated as above. This experiment was done in human breast cancer cells (MCF-7). The cell pellets were washed with PBS and resuspended in lysis solution (200 μl) and the debris was pelleted and the supernatant was transferred to a fresh tube. The Telo TAGGG Telomerase PCR ELISA (Roche) was carried as per the manufacturer's protocol. The samples were added to a PCR amplification tube containing reaction mixture (Tris Buffer with telomerase substrate, nucleotides, Taq polymersase biotin labeled primer 1 and primer 2 specific to telomere fragment) and nuclease free water and allowed for elongation for 33 cycles in a Thermal Cycler (MJ Research, PTC 100). […] The reaction was stopped with the help of 1N H2SO4 and was read in an ELISA plate reader at a test wavelength of 450 nm and reference wavelength of 690 nm.

Experiment [5] relates to HL-60 cells. In words: Genomic DNA extraction / DNA fragmentation. Format: cell-based, human. The note with it: 7 ug/ml, 48 h. On the procedure:
For assessing the extent of damage to the cellular DNA following the HAC-1 treatment, the cells under investigation were seeded in 25 cm^2 tissue culture flasks at a cell density of 1×10^6 cells per flask and incubated for different time points in a humidified atmosphere containing 5% CO2 at 37° C. The cells after incubation with samples at 7 μg/ml for 24, 48 and 72 hours were pelleted, The cell pelleted were washed with the PBS and incubated in a shaking hot water bath at 37 C. for 1-2 hours with lysis buffer for mammalian DNA extraction. The lysate was then treated with 1.5 volumes of Isopropyl alcohol and the DNA pelleted by centrifuging at […] for 20 minutes The DNA was dissolved in Tris EDTA (TE pH 8.00) and was run on 2% agarose and the visualized with the help of a gel documentation system (Pharmacia) and recorded.

Experiment [6] concerns MCF-7. The experiment in a line: Cell proliferation assay (trypan blue exclusion). It counts as cell-based, human. On the procedure: as §1
The subject of experiment [7] is MDA cells. In words: Cell proliferation assay (trypan blue exclusion). It counts as cell-based, human. On the procedure:
as §1

Experiment [8] deals with Colo-320 DM. In words: Cell proliferation assay (trypan blue exclusion). Format: cell-based, human. On the procedure: as §1
Experiment [9] has as its system MCF-7. In words: Cell viability (MTT) assay. It counts as cell-based, human. On the procedure:
The screening of samples was done in human breast cancer cells (MCF-7, MDA-MB-468, ZR-75-1 and SK-Br-3), human liver carcinoma cells (HepG2), human colon adinocacinoma cells (Colo320 D-M), human acute promylocytic leukemia cells (HL-60), mouse sarcoma cells (Sarcoma 180), mouse melanoma cells (C57/B1/6J). Cells were maintained in DMEM, RPMI 1640(colo320-D-M and HL-60) and Mecoy's medium (SKBr-3) supplemented with 10% Fetal Calf Serum (FCS) and antibiotics (100 IU/ml of penicillin and 100 μg/ml of streptomycin) till they achieved 80% confluence in a humidified atmosphere containing 5% CO2 at 37° C. The cultures were passaged upon confluence on a regular basis. […] Morphological changes in the cells were recorded
It was performed after removal of the culture supernatants; MTT assay was performed to assess the viability of cells. […] The plates were read on a micro plate reader using a reference wavelength of 690 nm and a test wavelength of 540 nm.
For calculation of IC50 value, the data were analyzed by no leaner regression (Curve Fit) analysis using Graph Pad Prism version 4.00. The results of cell proliferation and other parameters were analyzed by one-way ANOVA with Bonferroni's Multiple Comparison Test.

In experiment [10] the test system is NMU induced breast tumours. The experiment in a line: N-nitroso-N-methylurea induced model of breast cancer in rats. Format: in vivo, rat. The note with it: 25 mg/kg po daily 3 weeks then 12.5 mg/kg i.p. twice a week 5 weeks, comparable to tamoxifen. On the procedure:
A standard protocol for induction of breast cancer in female Sprague-Dawley rats (7 to 8 weeks of age and weight range of 80-100 gms) with a single dose of N-nitroso-N-methylurea (NMU) was used for the study. The rats were obtained from animal facility, R & D center, The Himalaya Drug Company, Bangalore. They were maintained on standard pellet diet (Lipton India Ltd., Mumbai) and water ad libitum. Around 60 rats were selected and NMU was administered intraperitoneally at a dose of 50 mg/kg b.wt. NMU was dissolved in saline and pH adjusted to 4.8. Animals were observed daily to assess general health. […]
Three longest possible diameters were recorded, and tumour volume (cm^3) was calculated using the formula LX W X B.
The variations of the total surface areas of tumors between day 1 and day 57 were analyzed using a two-way ANOVA for repeated measurements. […]

For experiment [11], the system named is MCF-7 cells. The experiment in a line: Assay for influence of estrogen. Conditions: with or without estradiol, 24 h. Format: cell-based, human. On the procedure: The efficacy of HAC-1 was studied to assess the hormone dependent or independent activity on cell proliferation. For this purpose MCF-7 cells were initially seeded in a 24 well plate with DMEM supplemented with 10% FCS and incubated for 24 hours in a humidified atmosphere with 5% CO2 and 95% air at 37° C. The cells were then shifted to charcoal striped medium supplemented with 1% bovine albumin serum (BSA,) with or with out the estradiol and HAC-1 and incubated further for a period of 24 h. After the incubation the cell population in each of the groups was recoded by trypan blue exclusion method.

Converted amounts (≈) assume the structure as drawn.

T1 sequence (O14746 whole entry): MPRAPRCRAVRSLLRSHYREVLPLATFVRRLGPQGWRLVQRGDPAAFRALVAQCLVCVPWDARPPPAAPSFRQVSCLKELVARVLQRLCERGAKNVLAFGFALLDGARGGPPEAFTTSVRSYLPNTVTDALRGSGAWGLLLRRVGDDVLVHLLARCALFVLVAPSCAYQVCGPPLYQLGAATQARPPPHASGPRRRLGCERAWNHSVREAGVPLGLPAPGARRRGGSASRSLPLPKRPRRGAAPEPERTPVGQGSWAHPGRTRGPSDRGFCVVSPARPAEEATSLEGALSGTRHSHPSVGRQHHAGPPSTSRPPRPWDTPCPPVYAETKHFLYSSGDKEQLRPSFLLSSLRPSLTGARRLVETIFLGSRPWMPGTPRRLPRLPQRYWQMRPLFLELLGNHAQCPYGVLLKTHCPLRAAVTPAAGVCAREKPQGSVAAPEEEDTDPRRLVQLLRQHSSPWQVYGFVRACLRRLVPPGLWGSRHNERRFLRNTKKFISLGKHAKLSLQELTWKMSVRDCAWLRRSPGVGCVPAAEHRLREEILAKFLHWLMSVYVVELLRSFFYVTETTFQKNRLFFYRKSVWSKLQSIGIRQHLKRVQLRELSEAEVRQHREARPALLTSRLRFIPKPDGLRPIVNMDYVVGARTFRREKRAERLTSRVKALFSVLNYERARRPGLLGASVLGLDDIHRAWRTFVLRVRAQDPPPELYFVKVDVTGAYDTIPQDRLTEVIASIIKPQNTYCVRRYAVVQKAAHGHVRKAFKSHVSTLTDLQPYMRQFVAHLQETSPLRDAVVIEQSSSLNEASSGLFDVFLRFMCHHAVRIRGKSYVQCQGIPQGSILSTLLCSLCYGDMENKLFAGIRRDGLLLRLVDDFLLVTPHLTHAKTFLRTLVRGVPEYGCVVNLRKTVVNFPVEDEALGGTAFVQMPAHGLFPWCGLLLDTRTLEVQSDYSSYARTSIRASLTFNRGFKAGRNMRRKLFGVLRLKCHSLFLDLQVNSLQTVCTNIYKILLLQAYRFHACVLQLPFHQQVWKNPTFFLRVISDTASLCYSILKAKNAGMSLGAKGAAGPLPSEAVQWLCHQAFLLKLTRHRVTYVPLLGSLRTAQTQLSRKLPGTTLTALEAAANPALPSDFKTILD

What is called IC50 is the concentration needed to halve the response being measured. Turning to `CC1=C2C3OC(=O)C(C)C3(O)CCC2(C)CCC1` (stereo not shown) [HAC-1, 7-hydroxyeudesm-4-en-6,12-olide], the “cell proliferation compared to control” value in experiment [1] (all the cell lines, p<0.001 and p<0.01) is recorded as “significantly inhibited”. Besides, in [2] (sarcoma bearing mice, 20 mg/kg, i.p.), the “differential count of WBC (neutrophils, lymphocytes)” value is listed as “restore these altered parameters to near normal”. Also, the weight gain entry in experiment [2] (tumour bearing mice, i.p. 10 and 20 mg/kg every other day for 14 days) is “significantly reduced the weight gain”. Further, in experiment [3], the “cells found apoptosed completely” value is “more than 80%”. Also, in experiment [4], the “telomerase activity compared to control” value was “inhibition in the telomarase activity”. In addition, the “apoptosis (DNA pattern)” value in [5] was “induced apoptosis”. Moreover, the “effective concentration to induce 50% inhibition of proliferation” value in experiment [6] worked out at 4 µg/mL; in experiment [7] it was 2 µg/mL; in experiment [8] it was 2 µg/mL. In [9], this compound yielded an IC50 of 1.62 µg/mL (≈ 6.47 µM). For the same compound, the tumor volume result in experiment [10] is recorded as “significantly reduced the tumor volume”. For the same compound, the “influence of estrogen on drug activity” value in experiment [11] is “drug activity is independent of estrogen”.

As to `CC(=O)O[C@H]1C(=O)[C@@]2(C)[C@H]([C@H](OC(=O)c3ccccc3)[C@]3(O)C[C@H](OC(=O)[C@H](O)[C@@H](NC(=O)c4ccccc4)c4ccccc4)C(C)=C1C3(C)C)[C@]1(OC(C)=O)CO[C@@H]1C[C@@H]2O` [paclitaxel, reference compound], the growth inhibition result in experiment [1] (at 1.75 μg/ml) is “marked growth inhibition”.
